# Measured values as given in US20060014740A1 (priority 2003, published 2006).
# Where two headings read alike, the source gives them in different places.
# Experiments:
# [1] = test system: RH7777 rat hepatoma cells; assay: SRB cytotoxicity assay, RH7777 control cell line; format: cell-based; conditions: for IC50: Rattus norvegicus, RH7777, Example 10 table, 0 to 100 μM for 96 h, read-out: IC50 RH7777
# In short: (§1)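 For each line, end-of-treatment cell numbers after 96 h with compound (0–100 μM, three to five replicates) came from absorbance at 540 nm of trichloroacetic acid-fixed, SRB-stained cells, calculated as a percentage of untreated wells.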
# [2] = test system: DU-145 human prostate cancer cells; assay: SRB cytotoxicity assay, DU-145; format: cell-based; conditions: Homo sapiens, DU-145, read-out: IC50 DU-145; Example 10 table; 96 h
# In short: as §1
# [3] = test system: PC-3 human prostate cancer cells; assay: SRB cytotoxicity assay, PC-3; format: cell-based; conditions: Homo sapiens; Example 10 table; 96 h; read-out: IC50 PC-3
# In short: as §1
# [4] = test system: LNCaP human prostate cancer cells; assay: SRB cytotoxicity assay, LNCaP; format: cell-based; conditions: Homo sapiens, LNCaP; Example 10 table; 96 h; read-out: IC50 LNCaP
# In short: as §1
# [5] = test system: PPC-1 human prostate cancer cells; assay: SRB cytotoxicity assay, PPC-1; format: cell-based; conditions: Homo sapiens, PPC-1; Example 10 table; 96 h; read-out: IC50 PPC-1
# In short: as §1
# [6] = test system: TSU-Pr1 human prostate cancer cells; assay: SRB cytotoxicity assay, TSU-Pr1; format: cell-based; conditions: Homo sapiens, TSU-Pr1; Example 10 table; 96 h; read-out: IC50 TSU-Pr1
# In short: as §1
# [7] = test system: human breast cancer cell line (MCF-7); assay: SRB cytotoxicity assay, MCF-7; format: cell-based; conditions: Homo sapiens, MCF7, read-out: IC50 MCF-7
# In short: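 Cells plated at 1000–5000 per well by growth rate and exposed to compound (0 to 100 μM) for 96 h, three to five replicates. Cell number read by sulforhodamine B: TCA fixation, 0.4% SRB staining, absorbance at 540 nm.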
# [8] = test system: CaOv-3 human ovarian cancer cell line; assay: SRB cytotoxicity assay, CaOv-3; format: cell-based; conditions: Homo sapiens, Caov-3; Table 8
# Procedure: (§2) For in vitro cytotoxicity screening, 1000 to 5000 cells were plated into each well of 96-well plates depending on growth rate, and exposed to different concentrations of a test compound for 96 h in three to five replicates. All the compounds were dissolved in dimethyl sulfoxide at 5 to 20 mM, and diluted to desired concentrations in complete culture medium. Cell numbers at the end of the drug treatment were measured by the SRB assay (Gududuru et al., “Synthesis and Biological Evaluation of Novel Cytotoxic Phospholipids for Prostate Cancer,” Bioorg. Med. Chem. Lett. 14:4919-4923 (2004); Rubinstein et at., “Comparison of in vitro Anticancer-Drug-Screening Data Generated with a Tetrazolium Assay Versus a Protein Assay Against a Diverse Panel of Human Tumor Cell Lines,” J. Naatl, Cancer Inst. 82:1113-1118 (1990), each of which is hereby incorporated by reference in its entirety). Briefly, the cells were fixed with 10% of trichloroacetic acid, stained with 0.4% SRB, and the absorbances at 540 nm was measured using a plate reader (DYNEX Technologies, Chantilly, Va.).
# (§3) In vitro cytotoxicity assay was performed by the same sulforhodamine B (SRB) assay (described above). The compounds shown in Table 8 below where tested for activity against the breast cancer and ovarian cancer cell lines.
# [9] = test system: OVCAR-3 human ovarian cancer cell line; assay: SRB cytotoxicity assay, OVCAR-3; format: cell-based; conditions: Homo sapiens, OVCAR-3; Table 8
# Procedure: as §2, §3
# [10] = test system: SKOv-3 human ovarian cancer cell line; assay: SRB cytotoxicity assay, SKOv-3; format: cell-based; conditions: Homo sapiens, SK-OV-3; Table 8
# Procedure: as §2, §3
# [11] = test system: PC-3 cells; assay: Apoptosis sandwich ELISA (DNA-histone complex), PC-3; format: cell-based, human
# Procedure: (§4) A sandwich ELISA (Roche, Mannheim, Germany) utilizing monoclonal antibodies specific for DNA and histones was used to quantify degree of apoptosis induced by the analogs after 72 h exposure. This assay measures DNA-histone complexes (mono- and oligonucleosomes) released into cytoplasm from the nucleus during apoptosis. RH7777 cells were employed because of nonspecific cytotoxicity of compound 4 in receptor-negative cells as well as receptor-positive prostate cancer cells.
# (§5) From the LPL receptor mRNA expression studies (Table 2), it was evident that these cell lines serve as an excellent model system to explore the effects of LPL receptor. Given the structural similarity of SAPs to ceramide (and the known ability of ceramide to induce apoptosis), it was then determined whether the antiproliferative effects of thiazolidine analogs were mediated via apoptotla events. The ability of the analogs to induce apoptosis in LNCaP, PC-3, and RH7777 cells was examined using a quantitative sandwich ELISA that measures DNA-histone complex released during apoptosis. The enrichment factor calculated (as ratio of OD405 in treated and un-treated cells) provides a quantitative assessment of the degree of apoptosis induced. Initially, only two compounds (4 & 5) were used for this study. Apoptotic activity of analog (compound 4) was selective in prostate cancer cells despite nonselective cytotoxicity in RH7777 negative control cells (see Table 5 below). Analog compound 5 induced apoptosis in PC-3 and LNCaP cells, but to a lesser extent in PC-3 cells perhaps due to lower potency in this cell line.
# [12] = test system: LNCaP cells; assay: Apoptosis sandwich ELISA (DNA-histone complex), LNCaP; format: cell-based, human
# Procedure: as §4, §5
# [13] = test system: LNCaP cells; assay: DNA fragmentation by agarose gel electrophoresis; format: cell-based, human; conditions: treated 24 to […], FIGS. 4A-B
# Procedure: In FIG. 4B, the dose and exposure time are indicated for compound 5 as follows: lane 1, 100 bp DNA marker; lane 2, […] for 24 h; lane 3, 5 μM for 48 h; lane 4, 5 μM for 72 h; lane 5, 5 μM for 96 h; lane 6, 3 μM for 96 h; lane 7, 8 μM for 48 h; and lane 8, 8 μM for 72 h;
# [14] = test system: RH7777 cells; assay: Apoptosis sandwich ELISA (DNA-histone complex), RH7777; format: cell-based, rat
# Procedure: as §4, §5
# [15] = Table 8, breast cancer cell line
SMILES,IC50 [1],IC50 [2],IC50 [3],IC50 [4],IC50 [5],IC50 [6],"IC50 ([7]; Example 10 table, 96 h)","IC50 [7, 15]",IC50 [8],IC50 [9],IC50 [10],Apoptosis enrichment factor (ratio of OD405 in treated and un-treated cells) ([11]; 2 μM for 72 h),Apoptosis enrichment factor (ratio of OD405 in treated and un-treated cells) ([11]; 5 μM for 72 h),Apoptosis enrichment factor (ratio of OD405 in treated and un-treated cells) ([11]; 10 μM for 72 h),Apoptosis enrichment factor (ratio of OD405 in treated and un-treated cells) ([12]; 2 μM for 72 h),Apoptosis enrichment factor (ratio of OD405 in treated and un-treated cells) ([12]; 5 μM for 72 h),Apoptosis enrichment factor (ratio of OD405 in treated and un-treated cells) ([12]; 10 μM for 72 h),DNA fragmentation (apoptosis) [13],also measured
"CCCCCCCCCCCCCCCCCCNC(=O)[C@@H]1CSC(c2ccccc2)N1.Cl (mixture of isomers) [Compound 5-HCI, (2RS, 4R)-2-Phenylthiazolidine-4-carboxylic acid octadecylamide Hydrochloride]",25.6 µM,5.4 µM,7.8 µM,2.1 µM,2 µM,5 µM,4.2 µM,4.2 µM,2.5 µM,4.5 µM,8.5 µM,1.4,2.3,3.4,4.5,45.2,37.1,induce cell apoptosis,Apoptosis enrichment factor (ratio of OD405 in treated and un-treated cells) ([11]; 20 μM for 72 h): 12.7; Apoptosis enrichment factor (ratio of OD405 in treated and un-treated cells) ([12]; 20 μM for 72 h): 26.1
"CCCCCCCCCCCCCCNC(=O)[C@@H]1CSC(c2ccccc2)N1.Cl (mixture of isomers) [Compound 4-HCI, (2RS, 4R)-2-Phenylthiazolidine-4-carboxylic acid tetradecylamide Hydrochloride]",3.4 µM,2.4 µM,3 µM,1.4 µM,1.3 µM,2 µM,4.2 µM,2.4 µM,13.9 µM,1.6 µM,2.1 µM,1.8,18.7,54.0,14.1,75.4,80.7,induce cell apoptosis,Fold less selective against RH7777 cell line than compound 5 [1]: 8 fold; Apoptosis enrichment factor (ratio of OD405 in treated and un-treated cells) ([14]; 2 μM for 72 h): 2.6; Apoptosis enrichment factor (ratio of OD405 in treated and un-treated cells) ([14]; 5 μM for 72 h): 3.2; Apoptosis enrichment factor (ratio of OD405 in treated and un-treated cells) ([14]; 10 μM for 72 h): 2.5
